Source: patent publication EP1769804B1, “hPTH(1-34) for use in preventing or reducing the incidence or severity of vertebral and / or non vertebral fracture in a male human” (priority 1998, dated 2012)

Key:
post-menopausal women [1] = assay: Clinical trial: BMC, BMD and bone area by dual energy absorptiometry (DEXA); assay type: in vivo, Humans
Experimental: The effect of PTH on bone mineral content (BMC), bone mineral density (BMD), and bone area were determined by dual energy absorptiometry (DEXA), and the results are reported in Tables 12-14. PTH administration caused apparent increases in BMC at the patient's lumbar spine, femur and hip, wrist, and throughout the patient's whole body (Table 12). Treatment with PTH caused significant increases in the patient's BMD at the lumbar spine, femur and hip (Table 13). The increases at the lumbar spine, femur and hip were statistically significant with p<0.001 (Table 13). […] The increases were statistically significant for the lumbar spine and hip neck (Table 14).

[2] = tested on: L-5 vertebra from cynomolgus monkeys; assay: QCT and 3D finite element modeling of L-5 vertebra; assay type: in vivo; conditions: for low BMD, percentage of L5 vertebral volume: 0-300 mg/cc; for low BMD, percentage of L5 vertebral volume / medium BMD, percentage of L5 vertebral volume / high BMD, percentage of L5 vertebral volume / cortical BMD, percentage of L5 vertebral volume: mean±SEM; for medium BMD, percentage of L5 vertebral volume: 300-700 mg/cc; for high BMD, percentage of L5 vertebral volume: 700-1000 mg/cc; for cortical BMD, percentage of L5 vertebral volume: >1000 mg/cc; for vertebral effective strain: finite element model, distributed load of 100 N
Experimental: These studies determined 3D finite element modeling data on vertebra from monkeys of the study dosed with PTH for 18 months. Excised L-5 vertebra in 50% ethanol/saline from the ovariectomized (n=7) and PTH (n=7) groups were serially scanned in 500 µm steps by quantitative computed tomography (QCT, Norland, Ft. Atkinson, WI), using 70x70 µm pixels. Each of the 500 µm cross-sections was analyzed for volumetric bone mineral density (BMD, mg/cc), bone mineral content (BMC, mg), cross-sectional area (X-Area), cancellous bone volume (BV/TV), trabecular thickness (Tb.Th), and connectivity (node density, strut analysis). Pixels in each serial scan were averaged to create 490x490x500 µm voxels. The serial scans were then stacked and a triangular surface mesh generated for each bone using the "marching cubes" algorithm (see e.g. Lorensen and Cline 1987 "Marching cubes, a high resolution 3D surface construction algorithm." Computer Graphics 21, 163-169). A smoothed version of each surface mesh was then used to generate a tetrahedral mesh for 3D finite-element modeling.
Young's modulus for each tetrahedral element was derived from the original voxel densities and material properties from a beam of cortical bone milled from the femoral diaphysis of the monkeys. Each tetrahedral mesh was rotated so that the bottom surface of each vertebra was aligned with a plane. Linear elastic stress analysis was then performed for each L-5 model in which a distributed load of 100 N was applied to the top surface of the centrum, perpendicular to the bottom plane while the bottom surface was fixed in the direction of loading. The resulting axial strain contours were evaluated, as were the BMD distributions, and compared between PTH and ovariectomized. At this resolution, the density of each voxel is dependent on the extent to which each voxel is filled with bone as opposed to soft tissue.

post-menopausal women [3] = assay: Clinical trial: number of non-vertebral fractures; assay type: in vivo, Humans
[4] = tested on: ovariectomized cynomolgus primates; assay: Bone mass by DXA and pQCT in the primate study; assay type: in vivo, Macaca fascicularis
Excerpt: All animals were euthanized after 18 months.

[5] = PTH-W, after withdrawal of PTH for 6 months
[6] = PTH for 18 months compared to ovariectomized

## teriparatide [rhPTH(1-34)]
post-menopausal women [1]; PTH-20
  bone area, endpoint % change (SD) from baseline, Femur/Hip Intertrochanter: 1.01 (4.99) %
  bone area, endpoint % change (SD) from baseline, Femur/Hip Neck: 0.27 (4.91) %
  bone area, endpoint % change (SD) from baseline, Femur/Hip Total: 0.84 (3.16) %
  bone area, endpoint % change (SD) from baseline, Femur/Hip Trochanter: 1.99 (12.16) %
  bone area, endpoint % change (SD) from baseline, Femur/Hip Ward's triangle: 1.13 (7.34) %
  bone area, endpoint % change (SD) from baseline, Lumbar spine: 2.52 (3.52) %
  bone area, endpoint % change (SD) from baseline, Wrist 1/3 radius: 0.52 (3.40) %
  bone area, endpoint % change (SD) from baseline, Wrist Ultradistal: -0.25 (6.00) %
  bone mineral content, endpoint % change (SD) from baseline, Femur/Hip Intertrochanter: 3.59 (7.32) %
  bone mineral content, endpoint % change (SD) from baseline, Femur/Hip Neck: 2.99 (7.26) %
  bone mineral content, endpoint % change (SD) from baseline, Femur/Hip Total: 3.50 (6.26) %
  bone mineral content, endpoint % change (SD) from baseline, Femur/Hip Trochanter: 5.68 (15.58) %
  bone mineral content, endpoint % change (SD) from baseline, Femur/Hip Ward's triangle: 5.36 (14.78) %
  bone mineral content, endpoint % change (SD) from baseline, Lumbar spine: 11.85 (8.83) %
  bone mineral content, endpoint % change (SD) from baseline, Whole body: 1.30 (4.48) %
  bone mineral content, endpoint % change (SD) from baseline, Wrist 1/3 radius: -1.37 (4.51) %
  bone mineral content, endpoint % change (SD) from baseline, Wrist Ultradistal: -0.25 (6.53) %
  bone mineral density, endpoint % change (SD) from baseline, Femur/Hip Intertrochanter: 2.62 (5.52) %
  bone mineral density, endpoint % change (SD) from baseline, Femur/Hip Neck: 2.79 (5.72) %
  bone mineral density, endpoint % change (SD) from baseline, Femur/Hip Total: 2.58 (4.88) %
  bone mineral density, endpoint % change (SD) from baseline, Femur/Hip Trochanter: 3.50 (6.81) %
  bone mineral density, endpoint % change (SD) from baseline, Femur/Hip Ward's triangle: 4.19 (11.93) %
  bone mineral density, endpoint % change (SD) from baseline, Lumbar spine: 9.70 (7.41) %
  bone mineral density, endpoint % change (SD) from baseline, Wrist 1/3 radius: -1.94 (4.07) %
  bone mineral density, endpoint % change (SD) from baseline, Wrist Ultradistal: -0.05 (7.14) %
post-menopausal women [1]; PTH-40
  bone area, endpoint % change (SD) from baseline, Femur/Hip Intertrochanter: 1.01 (4.89) %
  bone area, endpoint % change (SD) from baseline, Femur/Hip Neck: 0.81 (5.56) %
  bone area, endpoint % change (SD) from baseline, Femur/Hip Total: 1.05 (2.98) %
  bone area, endpoint % change (SD) from baseline, Femur/Hip Trochanter: 1.92 (11.30) %
  bone area, endpoint % change (SD) from baseline, Femur/Hip Ward's triangle: 0.99 (8.06) %
  bone area, endpoint % change (SD) from baseline, Lumbar spine: 3.34 (3.72) %
  bone area, endpoint % change (SD) from baseline, Wrist 1/3 radius: 0.01 (4.42) %
  bone area, endpoint % change (SD) from baseline, Wrist Ultradistal: -0.39 (4.80) %
  bone mineral content, endpoint % change (SD) from baseline, Femur/Hip Intertrochanter: 4.99 (7.79) %
  bone mineral content, endpoint % change (SD) from baseline, Femur/Hip Neck: 5.80 (8.71) %
  bone mineral content, endpoint % change (SD) from baseline, Femur/Hip Total: 4.78 (6.70) %
  bone mineral content, endpoint % change (SD) from baseline, Femur/Hip Trochanter: 6.53 (15.33) %
  bone mineral content, endpoint % change (SD) from baseline, Femur/Hip Ward's triangle: 8.86 (17.02) %
  bone mineral content, endpoint % change (SD) from baseline, Lumbar spine: 16.62 (11.1) %
  bone mineral content, endpoint % change (SD) from baseline, Whole body: 2.28 (5.44) %
  bone mineral content, endpoint % change (SD) from baseline, Wrist 1/3 radius: -3.04 (6.09) %
  bone mineral content, endpoint % change (SD) from baseline, Wrist Ultradistal: -1.88 (7.97) %
  bone mineral density, endpoint % change (SD) from baseline, Femur/Hip Intertrochanter: 3.98 (5.96) %
  bone mineral density, endpoint % change (SD) from baseline, Femur/Hip Neck: 5.06 (6.73) %
  bone mineral density, endpoint % change (SD) from baseline, Femur/Hip Total: 3.60 (5.42) %
  bone mineral density, endpoint % change (SD) from baseline, Femur/Hip Trochanter: 4.40 (7.45) %
  bone mineral density, endpoint % change (SD) from baseline, Femur/Hip Ward's triangle: 7.85 (13.24) %
  bone mineral density, endpoint % change (SD) from baseline, Lumbar spine: 13.7 (9.69) %
  bone mineral density, endpoint % change (SD) from baseline, Wrist 1/3 radius: -3.17 (4.62) %
  bone mineral density, endpoint % change (SD) from baseline, Wrist Ultradistal: -1.76 (7.20) %
[2]; PTH for 18 months
  low BMD, percentage of L5 vertebral volume: 17.7±1.6 %
  medium BMD, percentage of L5 vertebral volume: 58.9±1.9 %
  high BMD, percentage of L5 vertebral volume: 22.8±2.7%
  cortical BMD, percentage of L5 vertebral volume: 0.6±0.3%
  BMC at the midlevel of the L5 vertebra: 47.4 ± 1.5 mg
  vertebral effective strain: 447±36 ustrain
[2]; [5]
  low BMD, percentage of L5 vertebral volume: 22.4±1.3 %
  medium BMD, percentage of L5 vertebral volume: 49.7±1.2%
  high BMD, percentage of L5 vertebral volume: 27.0±1.6 %
  cortical BMD, percentage of L5 vertebral volume: 0.8±0.2%
  BMC at the midlevel of the L5 vertebra: 44.2 ± 1.2 mg
  vertebral effective strain: 539±34 ustrain
[2]; [6]
  greater Tb.N, centrum: 37%
  greater node density (node/tissue volume): 140%
  greater node-to-node struts: 286%
  increase in BMC, middle 500 µm slice of L-5: 27%
  increase in BMD, middle 500 µm slice of L-5: 21%
  increase in BV/TV, centrum: 73%
  increase in Tb.Th, centrum: 30%
[2]; PTH treatment, vs OVX
  reduction of average mechanical strain in the vertebra: 36%
[2]; after withdrawal of PTH
  average mechanical strain in the vertebra below OVX: 23%
post-menopausal women [3]; PTH-20 (N=541)
  number of non-vertebral fractures, Ankle: 2
  number of non-vertebral fractures, Foot: 1
  number of non-vertebral fractures, Hip: 2
  number of non-vertebral fractures, Humerus: 4
  number of non-vertebral fractures, Other: 14
  number of non-vertebral fractures, Pelvis: 1
  number of non-vertebral fractures, Radius: 7
  number of non-vertebral fractures, Ribs: 5
  number of non-vertebral fractures, Total: 34
  number of non-vertebral fractures, Total w/o "Other": 21
post-menopausal women [3]; PTH-40 (N=552)
  number of non-vertebral fractures, Ankle: 2
  number of non-vertebral fractures, Foot: 4
  number of non-vertebral fractures, Hip: 3
  number of non-vertebral fractures, Humerus: 3
  number of non-vertebral fractures, Other: 9
  number of non-vertebral fractures, Pelvis: 0
  number of non-vertebral fractures, Radius: 10
  number of non-vertebral fractures, Ribs: 5
  number of non-vertebral fractures, Total: 32
  number of non-vertebral fractures, Total w/o "Other": 24
[4]; 18 months, DXA
  increase of whole body bone mineral content (BMC) compared to baseline: up to 6%
[4]; Fig. 1
  overall skeletal bone mass, expressed as total body BMC: increased significantly
[4]; compared to ovariectomized controls
  proximal tibia BMC and BMD: increased BMC and BMD
[4]; pQCT
  BMD of the midshaft or distal radius: did not alter
[4]; radius midshaft, PTH5 group
  increase of cross-sectional area of the midshaft: 7%
